Laboratory results from ChEMBL document CHEMBL1130739 (Bioorg Med Chem Lett, 1998).

Tests used:
[1] = molecular target: Dihydroorotate dehydrogenase (quinone), mitochondrial (Homo sapiens, UniProt Q02127); assay: Inhibition of human recombinant dihydroorotate dehydrogenase (DHODase)
[2] = Concentration required to inhibit proliferation in a mixture of human lymphocytes using mixed lymphocyte reaction test; format: functional, cell-based

Dihydroorotate dehydrogenase (quinone), mitochondrial, sequence (Q02127 whole entry): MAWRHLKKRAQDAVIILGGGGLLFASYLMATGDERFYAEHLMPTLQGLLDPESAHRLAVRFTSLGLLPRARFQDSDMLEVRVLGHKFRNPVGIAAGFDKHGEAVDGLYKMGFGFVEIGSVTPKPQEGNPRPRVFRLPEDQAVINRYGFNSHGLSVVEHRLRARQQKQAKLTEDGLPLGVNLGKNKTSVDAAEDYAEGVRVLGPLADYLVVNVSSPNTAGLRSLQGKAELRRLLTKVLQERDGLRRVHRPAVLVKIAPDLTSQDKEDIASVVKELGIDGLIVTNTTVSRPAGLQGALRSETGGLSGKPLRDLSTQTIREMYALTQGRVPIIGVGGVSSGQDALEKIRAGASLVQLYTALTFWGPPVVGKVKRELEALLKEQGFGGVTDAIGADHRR

Row | Compound | Ki [1] | IC50 [2]
1 | O=C(O)c1c2c(nc3ccc(F)cc13)-c1cnc(-c3ccccc3)nc1CC2 | 380 nM | 600 nM
2 | Cc1cccc(-c2ccc3c(c2)CCc2c-3nc3ccc(F)cc3c2C(=O)O)c1 | 59 nM | 60 nM
3 | O=C(O)c1c2c(nc3ccc(F)cc13)-c1ccc(-c3ccccc3)cc1CC2 | 8.3 nM | 30 nM
4 | O=C(O)c1c2c(nc3ccc(F)cc13)-c1sc(-c3ccccc3)cc1CC2 | > 182 nM | > 10000 nM
5 | Cc1ccc(-c2ccc3c(c2)CSc2c-3nc3ccc(F)cc3c2C(=O)O)cc1 | 218 nM | 350 nM
6 | COc1ccccc1-c1ccc2c(c1)CCc1c-2nc2ccc(F)cc2c1C(=O)O | 20 nM | 50 nM
7 | O=C(O)c1c2c(nc3ccc(F)cc13)-c1ccc(-c3cccc(C(F)(F)F)c3)cc1CC2 | 43 nM | 18 nM
8 | COc1cccc(-c2ccc3c(c2)CCc2c-3nc3ccc(F)cc3c2C(=O)O)c1 | 25 nM | 10 nM
9 | O=C(O)c1c2c(nc3ccc(F)cc13)-c1ccc(-c3ccccc3)cc1S(=O)(=O)C2 | 139 nM | 8500 nM
10 | Cc1ccc(-c2ccc3c(c2)SCc2c-3nc3ccc(F)cc3c2C(=O)O)cc1 | 13 nM | 50 nM
11 | O=C(O)c1c2c(nc3ccc(F)cc13)-c1ccc(-c3ccsc3)cc1CC2 | 52 nM | 170 nM
12 | O=C(O)c1c2c(nc3ccc(F)cc13)-c1cccc(-c3ccccc3)c1CC2 | 300 nM | > 5000 nM
13 | O=C(O)c1c2c(nc3ccc(F)cc13)-c1ccc(-c3ccccc3C(F)(F)F)cc1CC2 | 40 nM | 50 nM
14 | Cc1cccc(-c2ccc3c(n2)CCc2c-3nc3ccc(F)cc3c2C(=O)O)c1 | 81 nM | 180 nM
15 | Cc1ccc(-c2ccc3c(c2)CCc2c-3nc3ccc(F)cc3c2C(=O)O)cc1 | 40 nM | 28 nM
16 | COc1cccc(-c2ccc3c(n2)CCc2c-3nc3ccc(F)cc3c2C(=O)O)c1 | 160 nM | 300 nM
17 | Cc1cccc(-c2ccc3c(c2)SCc2c-3nc3ccc(F)cc3c2C(=O)O)c1 | 37 nM | 14 nM
18 | Cc1cccc(-c2ccc3c(c2)CSc2c-3nc3ccc(F)cc3c2C(=O)O)c1 | 135 nM | 170 nM

Row | Compound | Ki [1] | IC50 [2]
19 | Cc1c(-c2ccc(-c3ccccc3F)cc2)nc2ccc(F)cc2c1C(=O)O [BREQUINAR SODIUM] | – | 15 nM
20 | O=C(O)c1c2c(nc3ccc(C(F)(F)F)cc13)-c1ccc(-c3ccccc3)cc1CC2 | 31 nM | 52 nM
21 | O=C(O)c1c2c(nc3ccc(F)cc13)-c1ccc(-c3ccccc3)nc1CC2 | 409 nM | 100 nM
22 | O=C(O)c1c2c(nc3ccc(F)cc13)-c1ccc(-c3ccccc3F)cc1CC2 | 34 nM | 40 nM
23 | O=C(O)c1c2c(nc3ccc(F)cc13)-c1ccc(-c3nccs3)cc1CC2 | > 180 nM | > 5000 nM
24 | O=C(O)c1c2c(nc3ccc(F)cc13)-c1ccc(-c3ccccc3)cc1[S+]([O-])C2 (stereo unspecified) | 206 nM | 240 nM
25 | Cc1ccccc1-c1ccc2c(c1)CSc1c-2nc2ccc(F)cc2c1C(=O)O | 25 nM | 65 nM
26 | O=C(O)c1c2c(nc3ccc(F)cc13)-c1ccc(-c3ccccc3)cc1CO2 | > 204 nM | 380 nM
27 | COc1ccc(-c2ccc3c(c2)CCc2c-3nc3ccc(F)cc3c2C(=O)O)cc1 | 55 nM | 60 nM
28 | O=C(O)c1c2c(nc3ccc(F)cc13)-c1ccc(-c3ccccc3)cc1CS2 | 170 nM | 310 nM
29 | Cc1ccccc1-c1ccc2c(c1)SCc1c-2nc2ccc(F)cc2c1C(=O)O | 27 nM | 0.6 nM
30 | O=C(O)c1c2c(nc3ccc(F)cc13)-c1ccc(-c3ccoc3)cc1CC2 | 190 nM | 280 nM
31 | Cc1ccccc1-c1ccc2c(c1)CCc1c-2nc2ccc(F)cc2c1C(=O)O | 10 nM | 30 nM
32 | O=C(O)c1c2c(nc3ccc(F)cc13)-c1ccc(-c3ccccc3)cc1OC2 | 48 nM | 220 nM
33 | O=C(O)c1c2c(nc3ccc(F)cc13)-c1ccc(-c3ccccc3)cc1SC2 | 17 nM | 16 nM
34 | O=C(O)c1c2c(nc3ccc(F)cc13)-c1ccc(-c3ccc(C(F)(F)F)cc3)cc1CC2 | 370 nM | 850 nM
35 | O=C(O)c1c2c(nc3ccc(F)cc13)-c1cccc(Oc3ccccc3)c1CC2 | 962 nM | > 5000 nM
36 | O=C(O)c1c2c(nc3ccc(F)cc13)-c1cc(-c3ccccc3)ccc1CC2 | > 1000 nM | > 5000 nM
